Laboratory results published in patent publication US20090099158A1, “TETRAHYDROISOQUINOLINE COMPOUNDS AS MODULATORS OF THE HISTAMINE H3 RECEPTOR” (priority 2007, published 2009).

Target: T1, cloned human H3 receptors (Homo sapiens, UniProt Q9Y5N1)
T1 construct: expressed in transfected cells; host or cells: SK-N-MC cells
Assay: H3 Receptor Binding (Human)
Conditions: cloned human H3 receptors stably expressed in SK-N-MC cells; average of the results obtained
Protocol: Binding of compounds to the cloned human H3 receptors, stably expressed in SK-N-MC cells, was performed as described by Barbier, A. J. et al. (Br. J. Pharmacol. 2004, 143(5), 649-661). Data for compounds tested in this assay are presented in Table 1 as an average of the results obtained.

T1 sequence (Q9Y5N1 whole entry): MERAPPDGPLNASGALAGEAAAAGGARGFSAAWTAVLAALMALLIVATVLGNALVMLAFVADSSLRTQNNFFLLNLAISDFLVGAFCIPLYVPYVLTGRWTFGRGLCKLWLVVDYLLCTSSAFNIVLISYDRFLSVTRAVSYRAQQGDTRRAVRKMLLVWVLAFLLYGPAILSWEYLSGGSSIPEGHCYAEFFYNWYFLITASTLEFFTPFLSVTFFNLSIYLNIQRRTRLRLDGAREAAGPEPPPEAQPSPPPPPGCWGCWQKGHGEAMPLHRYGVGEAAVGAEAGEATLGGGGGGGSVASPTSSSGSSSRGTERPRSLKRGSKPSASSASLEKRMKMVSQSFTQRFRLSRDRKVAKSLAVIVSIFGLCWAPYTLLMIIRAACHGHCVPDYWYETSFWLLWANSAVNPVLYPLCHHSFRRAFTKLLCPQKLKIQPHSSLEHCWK

COc1cccc(C(=O)N2CCc3cc(C(=O)N4CCC[C@H]4CN4CCCC4)ccc3C2)c1 [Example 59, (S)-(3-Methoxy-phenyl)-[6-(2-Pyrrolidin-1-ylmethyl-pyrrolidine-1-carbonyl)-3,4-dihydro-1H-isoquinolin-2-yl]-methanone]
Ki: 12 nM

O=C(c1ccc2c(c1)CCN(C(=O)c1ccccc1Cl)C2)N1CCN(C2CCCCC2)CC1 [Example 75, [2-(2-Chloro-benzoyl)-1,2,3,4-tetrahydro-isoquinolin-6-yl]-(4-cyclohexyl-piperazin-1-yl)-methanone]
Ki: 77 nM

CC(C)N1CCN(C(=O)c2ccc3c(c2)CCN(C(=O)c2ccc(Cl)c(Cl)c2)C3)CC1 [Example 111, [2-(3,4-Dichloro-benzoyl)-1,2,3,4-tetrahydro-isoquinolin-6-yl]-(4-isopropyl-piperazin-1-yl)-methanone]
Ki: 24 nM

CN(C)C1CCN(C(=O)c2ccc3c(c2)CCN(C(=O)C2CCCCC2)C3)CC1 [Example 154, Cyclohexyl-[6-(4-dimethylamino-piperidine-1-carbonyl)-3,4-dihydro-1H-isoquinolin-2-yl]-methanone]
Ki: 441 nM

O=C(c1ccccc1F)N1CCc2cc(C(=O)N3CCC[C@H]3CN3CCCC3)ccc2C1 [Example 56, (S)-(2-Fluoro-phenyl)-[6-(2-Pyrrolidin-1-ylmethyl-pyrrolidine-1-carbonyl)-3,4-dihydro-1H-isoquinolin-2-yl]-methanone]
Ki: 23 nM

CC(C)(O)C1CCN(C(=O)c2ccc3c(c2)CCN(C2CCCC2)C3)CC1 [Example 194, (2-Cyclopentyl-1,2,3,4-tetrahydro-isoquinolin-6-yl)-[4-(1-hydroxy-1-methyl-ethyl)-piperidin-1-yl]-methanone]
Ki: 2700 nM

O=C(c1ccc2c(c1)CCNC2)N1CCOCC1 [Example 7, Morpholin-4-yl-(1,2,3,4-tetrahydro-isoquinolin-6-yl)-methanone]
Ki: 4000 nM

O=C(c1ccc2c(c1)CCN(C(=O)c1ccc([N+](=O)[O-])cc1)C2)N1CCN(C2CCC2)CC1 [Example 122, [6-(4-Cyclobutyl-piperazine-1-carbonyl)-3,4-dihydro-1H-isoquinolin-2-yl]-(4-nitro-phenyl)-methanone]
Ki: 7 nM

CC(=O)N1CCc2cc(C(=O)N3CCN(C4CCC4)CC3)ccc2C1 [Example 30, 1-[6-(4-Cyclobutyl-piperazine-1-carbonyl)-3,4-dihydro-1H-isoquinolin-2-yl]-ethanone]
Ki: 36 nM

CC(C)N1CCN(C(=O)c2ccc3c(c2)CCN(C(=O)c2ccc(Cl)cc2)C3)CC1 [Example 110, [2-(4-Chloro-benzoyl)-1,2,3,4-tetrahydro-isoquinolin-6-yl]-(4-isopropyl-piperazin-1-yl)-methanone]
Ki: 47 nM

CC(C)(C)OC(=O)N1CCc2cc(C(=O)N3CCN4CCCCC4C3)ccc2C1 (stereo not shown) [Example 4, 6-(Octahydro-pyrido[1,2-a]pyrazine-2-carbonyl)-3,4-dihydro-1H-isoquinoline-2-carboxylic acid tert-butyl ester]
Ki: 28 nM

O=C(C1CCCCC1)N1CCc2cc(CN3CCN(C4CCC4)CC3)ccc2C1 [Example 170, [6-(4-Cyclobutyl-piperazin-1-ylmethyl)-3,4-dihydro-1H-isoquinolin-2-yl]-cyclohexyl-methanone]
Ki: 860 nM

CC(C)(C)C1CCN(C(=O)c2ccc3c(c2)CCN(C2CCC2)C3)CC1 [Example 188, (4-tert-Butyl-piperidin-1-yl)-(2-cyclobutyl-1,2,3,4-tetrahydro-isoquinolin-6-yl)-methanone]
Ki: 340 nM

N#Cc1cccc(C(=O)N2CCc3cc(C(=O)N4CCC[C@H]4CN4CCCC4)ccc3C2)c1 [Example 52, (S)-3-[6-(2-Pyrrolidin-1-ylmethyl-pyrrolidine-1-carbonyl)-3,4-dihydro-1H-isoquinoline-2-carbonyl]-benzonitrile]
Ki: 15 nM

CC(C)N1CCCN(C(=O)c2ccc3c(c2)CCN(C(=O)C2CCCCC2)C3)CC1 [Example 162, Cyclohexyl-[6-(4-isopropyl-[1,4]diazepane-1-carbonyl)-3,4-dihydro-1H-isoquinolin-2-yl]-methanone]
Ki: 4 nM

O=C(c1ccc2c(c1)CCN(C(=O)C1CCCCC1)C2)N1CCC(N2CCOCC2)CC1 [Example 158, Cyclohexyl-[6-(4-morpholin-4-yl-piperidine-1-carbonyl)-3,4-dihydro-1H-isoquinolin-2-yl]-methanone]
Ki: 4090 nM

O=C(c1ccc2c(c1)CCN(C(=O)c1ccc(F)c(O)c1)C2)N1CCN(C2CCC2)CC1 [Example 124, (4-Cyclobutyl-piperazin-1-yl)-[2-(4-fluoro-3-hydroxy-benzoyl)-1,2,34-tetrahydro-isoquinolin-6-yl]-methanone]
Ki: 24 nM

CC(C)N1CCN(C(=O)c2ccc3c(c2)CCN(Cc2ccc(C(F)(F)F)cc2)C3)CC1 [Example 20, (4-Isopropyl-piperazin-1-yl)-[2-(4-trifluoromethyl-benzyl)-1,2,3,4-tetrahydro-isoquinolin-6-yl]-methanone]
Ki: 19 nM

O=C(c1ccc2c(c1)CCN(C1CCCC1)C2)N1CCN2CCCCC2C1 (stereo not shown) [Example 192, (2-Cyclopentyl-1,2,3,4-tetrahydro-isoquinolin-6-yl)-(octahydro-pyrido[1,2-a]pyrazin-2-yl)-methanone]
Ki: 1 nM

O=C(c1ccc2c(c1)CCN(C(=O)c1ccc(Cl)cc1Cl)C2)N1CCCN(C2CCC2)CC1 [Example 143, [6-(4-Cyclobutyl-[1,4]diazepane-1-carbonyl)-3,4-dihydro-1H-isoquinolin-2-yl]-(2,4-dichloro-phenyl)-methanone]
Ki: 1 nM

Cc1ccccc1C(=O)N1CCc2cc(C(=O)N3CCC[C@H]3CN3CCCC3)ccc2C1 [Example 54, (S)-[6-(2-Pyrrolidin-1-ylmethyl-pyrrolidine-1-carbonyl)-3,4-dihydro-1H-isoquinolin-2-yl]-o-tolyl-methanone]
Ki: 9 nM

CC(=O)N1CCc2cc(C(=O)N3CCN(C(C)C)CC3)ccc2C1 [Example 29, 1-[6-(4-Isopropyl-piperazine-1-carbonyl)-3,4-dihydro-1H-isoquinolin-2-yl]-ethanone]
Ki: 80 nM

CC(C)(C)C(=O)N1CCc2cc(C(=O)N3CCC[C@H]3CN3CCCC3)ccc2C1 [Example 47, (S)-2,2-Dimethyl-1-[6-(2-pyrrolidin-1-ylmethyl-pyrrolidine-1-carbonyl)-3,4-dihydro-1H-isoquinolin-2-yl]-propan-1-one]
Ki: 16 nM

CC(C)N1CCc2cc(C(=O)N3CCN4CCCCC4C3)ccc2C1 (stereo not shown) [Example 175, (2-Isopropyl-1,2,3,4-tetrahydro-isoquinolin-6-yl)-(octahydro-pyrido[1,2-a]pyrazin-2-yl)-methanone]
Ki: 2 nM

O=C(c1ccc(Cl)cc1)N1CCc2cc(C(=O)N3CCN4CCCCC4C3)ccc2C1 (stereo not shown) [Example 91, [2-(4-Chloro-benzoyl)-1,2,3,4-tetrahydro-isoquinolin-6-yl]-(octahydro-pyrido[1,2-a]pyrazin-2-yl)-methanone]
Ki: 25 nM

CO[C@H]1CC[C@H](C(=O)N2CCc3cc(C(=O)N4CCCN(C5CCC5)CC4)ccc3C2)CC1 [Example 147, trans-[6-(4-Cyclobutyl-[1,4]diazepane-1-carbonyl)-3,4-dihydro-1H-isoquinolin-2-yl]-(4-methoxy-cyclohexyl)-methanone]
Ki: 1 nM

CC(C)N1CCc2cc(C(=O)N3CCCCC3)ccc2C1 [Example 173, (2-Isopropyl-1,2,3,4-tetrahydro-isoquinolin-6-yl)-piperidin-1-yl-methanone]
Ki: 1800 nM

CC(C)N1CCc2cc(C(=O)N3CCC(C(C)(C)C)CC3)ccc2C1 [Example 176, (4-tert-Butyl-piperidin-1-yl)-(2-isopropyl-1,2,3,4-tetrahydro-isoquinolin-6-yl)-methanone]
Ki: 250 nM

O=C(c1ccc2c(c1)CCN(C1CCCC1)C2)N1CCCCC1 [Example 191, (2-Cyclopentyl-1,2,3,4-tetrahydro-isoquinolin-6-yl)-piperidin-1-yl-methanone]
Ki: 2200 nM

O=C(c1ccc2c(c1)CCNC2)N1CCN2CCCCC2C1 (stereo not shown) [Example 10, (Octahydro-pyrido[1,2-a]pyrazin-2-yl)-(1,2,3,4-tetrahydro-isoquinolin-6-yl)-methanone]
Ki: 16 nM

O=C(Cc1ccccc1)N1CCc2cc(C(=O)N3CCN(C4CCC4)CC3)ccc2C1 [Example 129, 1-[6-(4-Cyclobutyl-piperazine-1-carbonyl)-3,4-dihydro-1H-isoquinolin-2-yl]-2-phenyl-ethanone]
Ki: 18 nM

Cc1ccc(C(=O)N2CCc3cc(C(=O)N4CCN5CCCCC5C4)ccc3C2)cc1 (stereo not shown) [Example 97, [2-(4-Methyl-benzoyl)-1,2,3,4-tetrahydro-isoquinolin-6-yl]-(octahydro-pyrido[1,2-a]pyrazin-2-yl)-methanone]
Ki: 38 nM

O=C(c1ccc(F)cc1)N1CCc2cc(C(=O)N3CCC[C@H]3CN3CCCC3)ccc2C1 [Example 58, (S)-(4-Fluoro-phenyl)-[6-(2-pyrrolidin-1-ylmethyl-pyrrolidine-1-carbonyl)-3,4-dihydro-1H-isoquinolin-2-yl]-methanone]
Ki: 17 nM

Cc1cccc(C(=O)N2CCc3cc(C(=O)N4CCN(C5CCC5)CC4)ccc3C2)c1 [Example 120, [6-(4-Cyclobutyl-piperazine-1-carbonyl)-3,4-dihydro-1H-isoquinolin-2-yl]-m-tolyl-methanone]
Ki: 12 nM

O=C(c1ccc2c(c1)CCN(Cc1ccccc1)C2)N1CCOCC1 [Example 13, (2-Benzyl-1,2,3,4-tetrahydro-isoquinolin-6-yl)-morpholin-4-yl-methanone]
Ki: > 10000 nM

O=C(c1ccc2c(c1)CCN(S(=O)(=O)c1ccc(F)cc1)C2)N1CCN(C2CCC2)CC1 [Example 104, (4-Cyclobutyl-piperazin-1-yl)-[2-(4-fluoro-benzenesulfonyl)-1,2,3,4-tetrahydro-isoquinolin-6-yl]-methanone]
Ki: 16 nM

O=C(C1CCCCC1)N1CCc2cc(CN3CCCN(C4CCC4)CC3)ccc2C1 [Example 171, [6-(4-Cyclobutyl-[1,4]diazepan-1-ylmethyl)-3,4-dihydro-1H-isoquinolin-2-yl]-cyclohexyl-methanone]
Ki: 23 nM
